Each compound was assayed against T1, Corticotropin-releasing factor receptor 1 (Rattus norvegicus, UniProt P35353) (assay: Compound was tested in vitro for its ability to displace [125 I]Tyr-sauvagine from corticotropin-releasing hormone type 1 receptor in rat cerebellum).
T1 sequence (P35353 whole entry): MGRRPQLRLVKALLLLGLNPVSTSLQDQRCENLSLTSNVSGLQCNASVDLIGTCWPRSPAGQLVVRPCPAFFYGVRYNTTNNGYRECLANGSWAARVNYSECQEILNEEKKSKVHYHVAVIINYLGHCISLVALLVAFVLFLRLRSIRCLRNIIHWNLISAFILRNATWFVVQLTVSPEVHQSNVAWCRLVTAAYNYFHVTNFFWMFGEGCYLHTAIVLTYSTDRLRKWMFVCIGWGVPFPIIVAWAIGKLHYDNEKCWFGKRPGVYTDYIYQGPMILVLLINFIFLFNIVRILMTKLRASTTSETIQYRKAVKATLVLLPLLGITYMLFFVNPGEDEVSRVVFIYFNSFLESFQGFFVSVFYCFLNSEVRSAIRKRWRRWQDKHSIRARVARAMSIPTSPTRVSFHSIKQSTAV
Type: tissue-based

Compared with `Cc1cc(C)c(-n2c(C)c(C)c3c(N4CCN(CCF)CC4)nc(C)nc32)c(C)c1`, `Cc1cc(C)c(-n2c(C)c(C)c3c(N(CCCF)CC4CC4)nc(C)nc32)c(C)c1` is lower in Ki: greater than 1000 nM for the first, 30 nM for the second. The second binds more tightly here.

First: CCCCN(CCCCF)c1nc(C)nc2c1c(C)c(C)n2-c1c(C)cc(C)cc1C
Second: CCCN(CCCCF)c1nc(C)nc2c1c(C)c(C)n2-c1c(C)cc(C)cc1C
The Ki of the first is 11-fold higher: 10 nM for the first, 0.91 nM for the second. The second binds more tightly here.

`CCCN(CC1CC1)c1nc(C)nc2c1c(C)c(C)n2-c1c(C)cc(C)cc1C` and `CCCCN(CC)c1nc(C)nc2c1c(C)c(C)n2-c1c(C)cc(C)cc1C` [ANTALARMIN] are within 1.5-fold of each other in Ki: 2.3 nM for the first, 2.5 nM for the second.

`CCN(CCCCF)c1nc(C)nc2c1c(C)c(C)n2-c1c(C)cc(C)cc1C` was tested, and the Ki was 3.5 nM.

From ChEMBL document CHEMBL1133325, “Synthesis and biological activity of fluoro-substituted pyrrolo[2,3-d]pyrimidines: the development of potential positron emission tomography imaging agents for the corticotropin-releasing hormone type 1 receptor” (Bioorg Med Chem Lett, 2000)
